Usually IC50 stands for the point on the concentration scale where inhibition reaches its midpoint.

Entries after “also recorded” stand apart in the source; their conditions may differ.

For one assay, the target named is T1, ER-α (Rattus norvegicus, UniProt P06211).
T1 sequence (P06211 1-600): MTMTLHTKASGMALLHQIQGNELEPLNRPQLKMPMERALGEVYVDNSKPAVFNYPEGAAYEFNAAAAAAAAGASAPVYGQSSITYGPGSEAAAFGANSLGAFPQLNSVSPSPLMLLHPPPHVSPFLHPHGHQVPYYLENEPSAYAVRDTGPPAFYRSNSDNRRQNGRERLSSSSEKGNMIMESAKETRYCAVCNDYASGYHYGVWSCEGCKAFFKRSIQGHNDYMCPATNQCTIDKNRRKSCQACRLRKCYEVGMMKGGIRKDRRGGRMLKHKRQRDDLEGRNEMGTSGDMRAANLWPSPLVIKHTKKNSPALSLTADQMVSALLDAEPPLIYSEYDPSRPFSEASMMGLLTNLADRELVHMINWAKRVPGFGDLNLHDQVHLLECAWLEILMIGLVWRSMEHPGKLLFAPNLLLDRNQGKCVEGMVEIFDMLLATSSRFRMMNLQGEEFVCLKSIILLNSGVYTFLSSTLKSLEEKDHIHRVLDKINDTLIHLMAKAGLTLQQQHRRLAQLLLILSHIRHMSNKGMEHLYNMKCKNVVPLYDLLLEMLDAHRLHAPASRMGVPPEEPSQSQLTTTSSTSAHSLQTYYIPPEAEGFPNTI
Description: ER-α transactivation, ERE-LUC in COS or 293 cells. It is filed as cell-based. The conditions noted are these: for inhibition of estradiol (E2) induced ER-α activity (luciferase expression): with estrogen. The arrangement: % estardiol activity, ER-α: dose or concentration left out as unconfirmed.

Another assay has as its target T2, ER-β (Rattus norvegicus, UniProt Q62986).
T2 construct: expressed in transfected cells; host or cells: COS or 293 cells
Description: ER-β transactivation, ERE-LUC in COS or 293 cells. Format: cell-based. Also noted: % estardiol activity, ER-β: dose or concentration left out as unconfirmed. Particulars: for ER-β LUC expression, compound alone / inhibition of E2-stimulated LUC expression, ER-β: COS or 293 cells; for inhibition of E2-stimulated LUC expression, ER-β: with E2.

Assay [1] has as its system TRAP positive multinucleated osteoclasts. Description: TRAP positive multinucleated osteoclasts from bone marrow cells. The conditions noted are these: RANKL and GMCSF, 12 days. It is filed as cell-based, rat. On the procedure:
FIG. 7: Effect of the indicated compounds on TRAP positive multinucleated osteoclasts. Bone marrow cells from rat femur was cultured in Alpha MEM+10% csFBS without phenol red in the presence or absence of 30 ng/ml RANKL and 10 ng/ml GMCSF. The cells were treated for 12 days and were stained for tartarate resistant acid phosphatase activity (TRAP) and multinucleated osteoclasts were counted.
Bone marrow cells isolated from rat femur were cultured in Alpha MEM without phenol red+10% sterile FBS without phenol red in the presence or absence of […] RANKL and 10 ng/ml GMCSF. The cells were treated for 12 days were stained for tartarate resistant acid phosphatase activity (TRAP) positive multinucleated osteoclasts and were counted.

For the next assay, the system named is PC-3 cells. Description: Androgen independent prostate cancer cell growth. It is filed as cell-based. Particulars: for PC-3 cell growth inhibition: 72 hrs; for PC-3 growth inhibition, qualitative grading: in vitro, data not shown. Here is the method:
PC-3 cells were plated in RPMI+10% csFBS at 6000 cells per well of a 96 well plate. Medium was changed to RPMI+1% csFBS without phenol red and then treated for 72 hrs with increasing concentrations of SERMs.
The prostate cancer cell line PC-3 was plated in RPMI+10% csFBS at 6000 cells per well of a 96 well plate. Medium was changed to RPMI+1% csFBS without phenol red and cells were treated for 72 hrs with increasing concentrations of SERMs.
PC-3 growth inhibition was determined qualitatively, in vitro, and represented as a grading system based on the ability of the SERMs to inhibit growth. The number −4 is for compounds that induced 100% growth inhibition at 1 uM, −3 for compounds that inhibit growth by about 75-90%, −2 for about 50-70% and −1 for inhibition less than 50% growth.

T2 sequence (Q62986 whole entry): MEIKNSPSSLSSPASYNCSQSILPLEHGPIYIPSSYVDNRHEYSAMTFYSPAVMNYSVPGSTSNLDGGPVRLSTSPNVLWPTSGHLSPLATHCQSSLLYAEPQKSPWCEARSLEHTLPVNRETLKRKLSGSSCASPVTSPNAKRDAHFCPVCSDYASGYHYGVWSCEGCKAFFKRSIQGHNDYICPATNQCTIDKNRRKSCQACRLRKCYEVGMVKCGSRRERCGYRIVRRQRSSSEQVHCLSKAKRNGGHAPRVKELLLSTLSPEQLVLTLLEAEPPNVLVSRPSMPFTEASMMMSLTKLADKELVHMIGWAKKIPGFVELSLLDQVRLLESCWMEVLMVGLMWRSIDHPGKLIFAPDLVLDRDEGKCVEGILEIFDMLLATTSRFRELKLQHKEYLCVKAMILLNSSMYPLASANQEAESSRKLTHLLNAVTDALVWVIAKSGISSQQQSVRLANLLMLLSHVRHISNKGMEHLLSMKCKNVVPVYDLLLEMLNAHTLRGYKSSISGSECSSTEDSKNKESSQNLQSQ

Consider `O=C(c1ccccc1)N(c1ccc(O)cc1)c1ccc(OCCN2CCCCC2)cc1` [Compound 4a, N-(4-hydroxyphenyl)-N-[4-(2-piperidin-1-ylethoxy)-phenyl]-benzamide], for which the “% estardiol activity, ER-α” value on ER-α is on record as 29.9%. Further, on ER-α (COS or 293 cells), the “ER-α activity (luciferase expression), compound alone” value is “no effect on ER-α activity; also recorded: neither SERM alone showed any such effect” and the “inhibition of estradiol (E2) induced ER-α activity (luciferase expression)” value is recorded as “inhibited the estradiol (E2) induced ER-α activity to basal levels; also recorded: inhibited estrogen stimulated luciferase expression”. For the same compound, the midpoint of inhibition on ER-α (ER alpha antagonists), the IC50, lay at 0.035 µM. Further, on ER-β, the “ER-β LUC expression, compound alone” value is given as “neither 4a nor 4h stimulated LUC expression” and the “inhibition of E2-stimulated LUC expression, ER-β” value is “inhibited E2-stimulated LUC expression”. In addition, in assay [1], the “osteoclast differentiation / osteoclast activity” value was “minimally but dose-dependently suppressed the osteoclast differentiation”. The “PC-3 cell growth inhibition” value in the assay with PC-3 cells (concentration not given) is reported as “about 50%”. Besides, the “PC-3 growth inhibition, qualitative grading” value in the assay on PC-3 cells is recorded as −1 (−1 for inhibition less than 50% growth).
Consider `Cl.O=C(c1ccc(F)cc1)N(c1ccc(O)cc1)c1ccc(OCCN2CCCCC2)cc1` [Compound 4h, N-(4-hydroxyphenyl)-N-[4-(2-piperidin-1-ylethoxy)-phenyl]-4-fluroro-benzamide hydrochloride], for which the “% estardiol activity, ER-α” value on ER-α is reported as 17.4%. For the same compound, the “inhibition of estradiol (E2) induced ER-α activity (luciferase expression)” value against ER-α (COS or 293 cells) is reported as “inhibited estrogen stimulated luciferase expression”. On ER-β, the “% estardiol activity, ER-β” value was determined as 29.1%; the “ER-β LUC expression, compound alone” value is given as “neither 4a nor 4h stimulated LUC expression”; the “inhibition of E2-stimulated LUC expression, ER-β” value was “inhibited E2-stimulated LUC expression”. Further, the “osteoclast differentiation / osteoclast activity” value in assay [1] (hydrochloride) is reported as “minimally but dose-dependently suppressed the osteoclast differentiation; also recorded: highly suppressive of osteoclast activity”. In the assay on PC-3 cells (1 μM), the “PC-3 cell growth inhibition” value is 75%. Besides, in the assay with PC-3 cells, the “PC-3 growth inhibition, qualitative grading” value was −2 (−2 for about 50-70%).

Values taken from patent US8158828B2, “Nuclear receptor binding agents” (priority 2005, dated 2012).
